In US9586951B2 (FUJIFILM Corporation, priority 2013, dated 2017):

These compounds were tested against T1, ATM (Homo sapiens, UniProt Q13315) (assay: ATM inhibition test (phosphorylation of Chk2 generated by ionizing radiation, AlphaScreen SureFire)). Settings: phosphorylated Chk2 in NCI-H460 cells, ionizing radiation 8Gy, 1 hour after test compound treatment; read-out: ATM inhibitory activity.
T1 construct: detecting phosphorylation of Chk2 in a human non-small cell lung cancer cell line NCI-H460 (ATCC company); host or cells: NCI-H460 human non-small cell lung cancer cells
Format: cell-based
Method in brief: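 Phosphorylated Chk2 read by AlphaScreen SureFire in human non-small cell lung cancer NCI-H460 cells, 1 hour after 8Gy ionizing radiation at 37° C. Compound added 1 hour before irradiation. Percent inhibition normalised between irradiated and non-irradiated drug-untreated signals.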

T1 sequence (Q13315 whole entry): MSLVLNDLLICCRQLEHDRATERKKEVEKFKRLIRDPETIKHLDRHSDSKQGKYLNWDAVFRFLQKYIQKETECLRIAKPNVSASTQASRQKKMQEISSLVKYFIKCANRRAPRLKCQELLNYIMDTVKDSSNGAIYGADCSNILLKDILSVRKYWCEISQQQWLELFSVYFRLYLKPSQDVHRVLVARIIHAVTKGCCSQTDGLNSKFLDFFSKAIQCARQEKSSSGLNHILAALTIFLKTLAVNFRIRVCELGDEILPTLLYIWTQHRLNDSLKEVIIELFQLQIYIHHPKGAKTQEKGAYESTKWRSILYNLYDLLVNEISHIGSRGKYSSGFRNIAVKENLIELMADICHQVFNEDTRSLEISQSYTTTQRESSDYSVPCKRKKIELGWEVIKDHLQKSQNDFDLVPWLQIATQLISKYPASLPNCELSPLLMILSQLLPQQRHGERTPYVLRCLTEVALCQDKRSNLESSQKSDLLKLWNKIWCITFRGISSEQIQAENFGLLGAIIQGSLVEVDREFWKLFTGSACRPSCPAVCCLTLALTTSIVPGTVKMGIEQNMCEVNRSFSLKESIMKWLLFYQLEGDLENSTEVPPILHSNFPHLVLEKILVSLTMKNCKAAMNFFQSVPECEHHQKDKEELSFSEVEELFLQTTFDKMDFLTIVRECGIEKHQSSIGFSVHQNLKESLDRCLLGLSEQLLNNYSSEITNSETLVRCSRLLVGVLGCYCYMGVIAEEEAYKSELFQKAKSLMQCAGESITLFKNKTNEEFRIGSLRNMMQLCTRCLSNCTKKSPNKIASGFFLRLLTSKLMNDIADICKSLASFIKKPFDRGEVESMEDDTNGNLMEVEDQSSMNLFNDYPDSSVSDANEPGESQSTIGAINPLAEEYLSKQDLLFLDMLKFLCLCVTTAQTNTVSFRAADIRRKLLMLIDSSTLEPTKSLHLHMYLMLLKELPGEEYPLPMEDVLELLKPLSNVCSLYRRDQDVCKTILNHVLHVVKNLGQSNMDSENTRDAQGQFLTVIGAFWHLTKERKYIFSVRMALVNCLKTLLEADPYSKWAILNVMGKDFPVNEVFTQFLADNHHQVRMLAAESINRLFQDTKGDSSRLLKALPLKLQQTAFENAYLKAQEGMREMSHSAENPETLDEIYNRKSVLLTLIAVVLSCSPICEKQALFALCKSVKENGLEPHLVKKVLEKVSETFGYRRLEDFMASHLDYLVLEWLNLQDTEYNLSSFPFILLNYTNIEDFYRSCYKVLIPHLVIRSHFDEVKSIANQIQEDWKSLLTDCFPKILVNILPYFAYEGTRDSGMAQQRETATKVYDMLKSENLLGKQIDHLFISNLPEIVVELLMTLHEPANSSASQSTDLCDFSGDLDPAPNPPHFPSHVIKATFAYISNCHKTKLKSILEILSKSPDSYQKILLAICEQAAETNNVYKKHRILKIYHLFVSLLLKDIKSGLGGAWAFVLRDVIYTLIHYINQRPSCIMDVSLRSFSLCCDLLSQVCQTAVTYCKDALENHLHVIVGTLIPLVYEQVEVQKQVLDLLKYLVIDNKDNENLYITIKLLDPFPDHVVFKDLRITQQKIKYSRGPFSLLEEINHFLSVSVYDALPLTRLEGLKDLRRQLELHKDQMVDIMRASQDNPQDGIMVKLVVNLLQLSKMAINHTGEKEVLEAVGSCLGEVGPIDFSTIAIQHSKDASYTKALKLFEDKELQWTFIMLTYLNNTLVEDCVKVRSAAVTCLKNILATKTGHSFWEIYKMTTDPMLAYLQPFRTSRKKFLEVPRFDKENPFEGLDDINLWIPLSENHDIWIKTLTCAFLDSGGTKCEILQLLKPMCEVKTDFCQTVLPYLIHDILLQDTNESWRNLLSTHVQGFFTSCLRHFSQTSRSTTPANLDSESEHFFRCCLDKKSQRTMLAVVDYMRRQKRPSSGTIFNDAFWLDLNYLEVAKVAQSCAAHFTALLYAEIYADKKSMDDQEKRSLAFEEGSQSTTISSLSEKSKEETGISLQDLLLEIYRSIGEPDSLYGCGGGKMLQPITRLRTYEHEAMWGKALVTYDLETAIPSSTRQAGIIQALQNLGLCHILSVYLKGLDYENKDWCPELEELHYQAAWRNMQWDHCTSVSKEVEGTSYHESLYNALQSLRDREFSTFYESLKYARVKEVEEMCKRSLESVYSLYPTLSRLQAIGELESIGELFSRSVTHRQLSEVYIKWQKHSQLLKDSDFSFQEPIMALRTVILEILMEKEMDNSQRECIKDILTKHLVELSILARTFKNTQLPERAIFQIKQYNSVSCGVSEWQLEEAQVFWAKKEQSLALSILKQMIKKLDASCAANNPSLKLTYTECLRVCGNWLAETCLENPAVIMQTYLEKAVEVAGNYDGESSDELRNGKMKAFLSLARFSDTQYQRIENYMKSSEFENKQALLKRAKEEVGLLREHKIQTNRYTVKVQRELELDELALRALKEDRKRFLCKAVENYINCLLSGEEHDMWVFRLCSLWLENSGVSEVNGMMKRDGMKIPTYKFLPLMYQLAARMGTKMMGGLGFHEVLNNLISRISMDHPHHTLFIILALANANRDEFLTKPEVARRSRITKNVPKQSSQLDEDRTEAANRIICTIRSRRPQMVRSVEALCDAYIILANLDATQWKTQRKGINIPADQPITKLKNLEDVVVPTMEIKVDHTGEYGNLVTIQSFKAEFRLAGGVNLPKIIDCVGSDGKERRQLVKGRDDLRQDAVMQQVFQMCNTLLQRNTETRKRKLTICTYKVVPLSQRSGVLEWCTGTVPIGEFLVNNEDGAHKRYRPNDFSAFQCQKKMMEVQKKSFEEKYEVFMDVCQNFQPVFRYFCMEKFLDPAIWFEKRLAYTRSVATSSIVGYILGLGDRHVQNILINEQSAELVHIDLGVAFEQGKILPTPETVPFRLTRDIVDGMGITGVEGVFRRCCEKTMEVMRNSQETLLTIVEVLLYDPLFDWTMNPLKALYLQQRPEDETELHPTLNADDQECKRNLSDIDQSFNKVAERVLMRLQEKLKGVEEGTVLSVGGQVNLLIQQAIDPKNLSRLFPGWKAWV

`CC(Nc1ccc2c(c1)Sc1cccc(-c3cc(N4CCOCC4)cc(=O)[nH]3)c1S2)c1ncccn1` (stereo not drawn) [Example 1-12-68, 4-Morpholino-6-(7-((1-(pyrimidin-2-yl)ethyl)amino)thianthren-1-yl)pyridin-2 (1H)-one] and `Cc1cccc(C(CCO)Nc2ccc3c(c2)Sc2cccc(-c4cc(N5CCOCC5)cc(=O)[nH]4)c2S3)n1` (stereo not drawn) [Example 1-34-5, 6-(7-((3-Hydroxy-1-(6-methylpyridin-2-yl)propyl)amino)thianthren-1-yl)-4-morpholino pyridin-2(1H)-one] fall in the same range of IC50: 100 to 500 nM for the first, 100 to 500 nM for the second.

`COC[C@@H](Nc1ccc2c(c1)Sc1cccc(-c3cc(N4CCOCC4)cc(=O)[nH]3)c1S2)C(=O)O` [Example 1-49, (R)-3-methoxy-2-((6-(4-morpholino-6-oxo-1,6-dihydropyridin-2-yl)thianthren-2-yl)amino)propionic acid] and `CC(Nc1ccc2c(c1)Sc1cccc(-c3cc(N4CCOCC4)cc(=O)[nH]3)c1S2)C(=O)N1CCOCC1` (stereo not drawn) [Example 1-18-5] fall in the same range of IC50: 500 to 2000 nM for the first, 500 to 2000 nM for the second.

`Cc1cncc(C(C)Nc2ccc3c(c2)Cc2cccc(-c4cc(N5CCOCC5)cc(=O)[nH]4)c2O3)n1` (stereo not drawn) [Example 2-14-49, 6-(7-((1-(6-Methylpyrazin-2-yl)ethyl)amino)-9H-xanthen-4-yl)-4-morpholino pyridin-2(1H)-one] and `COc1nccc(C(C)Nc2ccc3c(c2)Cc2cccc(-c4cc(N5CCOCC5)cc(=O)[nH]4)c2O3)n1` (stereo not drawn) [Example 2-14-63, 6-(7-((1-(2-Methoxypyrimidin-4-yl)ethyl)amino)-9H-xanthen-4-yl)-4-morpholino pyridin-2(1H)-one] fall in the same range of IC50: 100 to 500 nM for the first, 100 to 500 nM for the second.

First: COCCNCCC(Nc1ccc2c(c1)Sc1cccc(-c3cc(N4CCOCC4)cc(=O)[nH]3)c1S2)c1cccc(C)n1 (stereo not drawn) [Example 1-20-10, 6-(7-((3-((2-Methoxyethyl)amino)-1-(6-methylpyridin-2-yl)propyl)amino)thianthren-1-yl)-4-morpholino pyridin-2 (1H)-one]
Second: Cc1ccc(C(CCN(C)CCN(C)C)Nc2ccc3c(c2)Sc2cccc(-c4cc(N5CCOCC5)cc(=O)[nH]4)c2S3)nc1 (single isomer, unassigned) [Example 10-5-1, 6-(7-((3-((2-(Dimethylamino)ethyl)(methyl)amino)-1-(5-methylpyridin-2-yl)propyl)amino)thianthren-1-yl)-4-morpholinopyridin-2(1H)-one]
The IC50 of the first is higher: 100 to 500 nM for the first, under 100 nM for the second. The second is the more potent here.

First: CC(Nc1ccc2c(c1)Sc1cccc(-c3cc(N4CCOCC4)cc(=O)[nH]3)c1S2)c1cccc(CN2CCCC2)n1 (stereo not drawn) [Example 1-12-110, 4-Morpholino-6-(7-((1-(6-(pyrrolidin-1-ylmethyl)pyridin-2-yl)ethyl)amino)thianthren-1-yl)pyridin-2 (1H)-one]
Second: CC(CN1CCN(Cc2ccccn2)CC1)Nc1ccc2c(c1)Sc1cccc(-c3cc(N4CCOCC4)cc(=O)[nH]3)c1S2 (stereo not drawn) [Example 1-15-2, 4-Morpholino-6-(7-((1-(4-(pyridin-2-ylmethyl)piperazin-1-yl)propan-2-yl)amino)thianthren-1-yl)pyridin-2(1H)-one]
The IC50 of the first is higher: 500 to 2000 nM for the first, 100 to 500 nM for the second. The second is the more potent here.

`N#Cc1ccnc(CNc2ccc3c(c2)Cc2ccnc(-c4cc(N5CCOCC5)cc(=O)[nH]4)c2O3)c1` [Example 2-41-16, 2-(((1-(4-Morpholino-6-oxo-1,6-dihydropyridin-2-yl)-5H-chromeno[2,3-c]pyridin-7-yl)amino)methyl)isonicotinonitrile] and `Cc1cc(C)nc(CNc2ccc3c(c2)Cc2cccc(-c4cc(N5CCOCC5)cc(=O)[nH]4)c2O3)c1` [Example 2-14-15, 6-(7-(((4,6-Dimethylpyridin-2-yl)methyl)amino)-9H-xanthen-4-yl)-4-morpholino pyridin-2 (1H)-one] fall in the same range of IC50: 100 to 500 nM for the first, 100 to 500 nM for the second.

Compared with `Cc1cnc(C(CCN(C)C)Nc2ccc3c(c2)Sc2cccc(-c4cc(N5CCOCC5)cc(=O)[nH]4)c2O3)cn1` (single isomer, unassigned) [Example 10-7, 6-(8-((3-(Dimethylamino)-1-(5-methylpyrazin-2-yl)propyl)amino)phenoxathiin-4-yl)-4-morpholinopyridin-2(1H)-one], `COC[C@H](CN1CCOCC1)Nc1ccc2c(c1)Sc1cccc(-c3cc(N4CCOCC4)cc(=O)[nH]3)c1O2` [Example 10-6, (S)-6-(8-((1-methoxy-3-morpholinopropan-2-yl)amino)phenoxathiin-4-yl)-4-morpholinopyridin-2(1H)-one] is higher in IC50: under 100 nM for the first, 100 to 500 nM for the second. The first is the more potent here.

`O=c1cc(N2CCOCC2)cc(-c2cccc3c2Oc2ccc(NC4CCN(CCc5ccncc5)CC4)cc2C3)[nH]1` [Example 2-30-7, 4-Morpholino-6-(7-((1-(2-(pyridin-4-yl)ethyl)piperidin-4-yl)amino)-9H-xanthen-4-yl)pyridin-2(1H)-one] and `Cc1ccc(CN2CCC(Nc3ccc4c(c3)Cc3cccc(-c5cc(N6CCOCC6)cc(=O)[nH]5)c3O4)CC2)cn1` [Example 2-28-10, 6-(7-((1-((6-Methylpyridin-3-yl)methyl)piperidin-4-yl)amino)-9H-xanthen-4-yl)-4-morpholino pyridin-2(1H)-one] fall in the same range of IC50: 100 to 500 nM for the first, 100 to 500 nM for the second.

First: COc1cncc(CN2CCC(Nc3ccc4c(c3)Cc3cccc(-c5cc(N6CCOCC6)cc(=O)[nH]5)c3O4)CC2)c1 [Example 2-28-2, 6-(7-((1-((5-Methoxypyridin-3-yl)methyl)piperidin-4-yl)amino)-9H-xanthen-4-yl)-4-morpholino pyridin-2(1H)-one]
Second: N#CCN1CCC(Nc2ccc3c(c2)Cc2cccc(-c4cc(N5CCOCC5)cc(=O)[nH]4)c2O3)CC1 [Example 2-30-1, 2-(4-((5-(4-morpholino-6-oxo-1,6-dihydropyridin-2-yl)-9H-xanthen-2-yl)amino)piperidin-1-yl)acetonitrile]
The IC50 of the first is higher: 500 to 2000 nM for the first, 100 to 500 nM for the second.

`O=c1cc(N2CCOCC2)cc(-c2cccc3c2Oc2ccc(NCc4cncnc4)cc2C3)[nH]1` [Example 2-3-2, 4-Morpholino-6-(7-((pyrimidin-5-ylmethyl)amino)-9H-xanthen-4-yl) pyridin-2(1H)-one] and `O=c1cc(N2CCOCC2)cc(-c2cccc3c2Oc2ccc(NCc4cncc(OC(F)F)c4)cc2C3)[nH]1` [Example 2-14-6, 6-(7-(((5-(Difluoromethoxy)pyridin-3-yl)methyl)amino)-9H-xanthen-4-yl)-4-morpholino pyridin-2(1H)-one] fall in the same range of IC50: 100 to 500 nM for the first, 100 to 500 nM for the second.

First: O=c1cc(N2CCOCC2)cc(-c2cccc3c2Oc2ccc(NC4CCOC4)cc2C3)[nH]1 (stereo not drawn) [Example 2-16, 4-Morpholino-6-(7-((tetrahydrofuran-3-yl)amino)-9H-xanthen-4-yl)pyridin-2(1H)-one]
Second: CC(Nc1ccc2c(c1)Cc1cccc(-c3cc(N4CCOCC4)cc(=O)[nH]3)c1O2)C(=O)N1CCCC1 (stereo not drawn) [Example 2-15, 4-Morpholino-6-(7-((1-oxo-1-(pyrrolidin-1-yl)propan-2-yl)amino)-9H-xanthen-4-yl)pyridin-2(1H)-one]
The IC50 of the first is higher: 500 to 2000 nM for the first, 100 to 500 nM for the second. The second is the more potent here.

`O=c1cc(N2CCOCC2)cc(-c2ccc(F)c3c2Oc2ccc(NCc4cncc(Cl)c4)cc2C3)[nH]1` [Example 2-44-3, 6-(7-(((5-Chloropyridin-3-yl)methyl)amino)-1-fluoro-9H-xanthen-4-yl)-4-morpholinopyridin-2(1H)-one] and `COc1ccc(CNc2ccc3c(c2)Cc2cccc(-c4cc(N5CCOCC5)cc(=O)[nH]4)c2O3)nc1` [Example 2-2-42, 6-(7-(((5-Methoxypyridin-2-yl)methyl)amino)-9H-xanthen-4-yl)-4-morpholino pyridin-2(1H)-one] fall in the same range of IC50: 100 to 500 nM for the first, 100 to 500 nM for the second.

First: CN(c1ccc2c(c1)Sc1cccc(-c3cc(N4CCOCC4)cc(=O)[nH]3)c1S2)C1CCCNC1 (stereo not drawn) [Example 1-30, 6-(7-(methyl(piperidin-3-yl)amino)thianthren-1-yl)-4-morpholinopyridin-2(1H)-one]
Second: CN1CCC[C@H]1CNc1ccc2c(c1)Sc1cccc(-c3cc(N4CCOCC4)cc(=O)[nH]3)c1S2 [Example 1-3, (S)-6-(7-(((1-methylpyrrolidin-2-yl)methyl)amino)thianthren-1-yl)-4-morpholinopyridin-2(1H)-one]
The IC50 of the first is higher: 500 to 2000 nM for the first, 100 to 500 nM for the second.

First: O=c1cc(N2CCOCC2)cc(-c2cccc3c2Oc2cccc(N4CCOCC4)c2C3)[nH]1 [Example 2-60, 4-Morpholino-6-(8-morpholino-9H-xanthen-4-yl)pyridin-2(1H)-one]
Second: Cc1cccc(C(CO)Nc2ccc3c(c2)Cc2cccc(-c4cc(N5CCOCC5)cc(=O)[nH]4)c2O3)n1 (single isomer, unassigned) [Example 2-14-92-1, 6-(7-((2-hydroxy-1-(6-methylpyridin-2-yl)ethyl)amino)-9H-xanthen-4-yl)-4-morpholinopyridin-2(1H)-one]
The IC50 of the first is lower: 100 to 500 nM for the first, 500 to 2000 nM for the second. The first is the more potent here.

First: COc1cc(C(C)Nc2ccc3c(c2)Cc2cccc(-c4cc(N5CCOCC5)cc(=O)[nH]4)c2O3)ccn1 (stereo not drawn) [Example 2-14-26, 6-(7-((1-(2-Methoxypyridin-4-yl)ethyl)amino)-9H-xanthen-4-yl)-4-morpholino pyridin-2(1H)-one]
Second: Cc1cccc(CNc2ccc3c(c2)Cc2cccc(-c4nc(N5CCOCC5)cc(=O)[nH]4)c2O3)n1 [Example 2-52-1, 2-(7-(((6-Methylpyridin-2-yl)methyl)amino)-9H-xanthen-4-yl)-6-morpholino pyrimidine-4(3H)-one]
The IC50 of the first is lower: under 100 nM for the first, 100 to 500 nM for the second. The first is the more potent here.

`O=c1cc(N2CCOCC2)cc(-c2cccc3c2Sc2ccc(NC4CCN(Cc5ccccn5)CC4)cc2S3)[nH]1` [Example 1-24-19, 4-Morpholino-6-(7-((1-(pyridin-2-ylmethyl)piperidin-4-yl)amino)thianthren-1-yl)pyridin-2 (1H)-one] and `O=c1cc(N2CCOCC2)cc(-c2cccc3c2Sc2ccc(NC4CCN(CC(F)(F)F)CC4)cc2S3)[nH]1` [Example 1-25, 4-morpholino-6-(7-((1-(2,2,2-trifluoroethyl)piperidin-4-yl)amino)thianthren-1-yl)pyridin-2(1H)-one] fall in the same range of IC50: 100 to 500 nM for the first, 100 to 500 nM for the second.

`COCCN1CCC(C(Nc2ccc3c(c2)Sc2cccc(-c4cc(N5CCOCC5)cc(=O)[nH]4)c2S3)c2ccc(C)cn2)CC1` (stereo not drawn) [Example 1-56-7, 6-(7-(((1-(2-Methoxyethyl)piperidin-4-yl)(5-methylpyridin-2-yl)methyl)amino)thianthren-1-yl)-4-morpholino pyridin-2(1H)-one] gave an IC50 of under 100 nM.
